Experimental data published in patent US6737383B1, “Herbicidal oxadiazolidines” (priority 1999, dated 2004).

Columns and labels:
deadnettle = assay: Test E deadnettle; type: in vivo, Lamium amplexicaule; settings: Preemergence
spring wheat [1] = assay: Test E spring wheat; type: in vivo, Triticum aestivum; settings: Preemergence
common poppy = assay: Test E common poppy; type: in vivo, Papaver rhoeas; settings: Postemergence
Outline: (§1)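 Compounds formulated in non-phytotoxic solvent mixture with surfactant; for postemergence, sprayed on plants at 1- to 4-leaf stage grown in 60:40 sandy loam/greenhouse potting mix. Kept in greenhouse ~21 to 28 days, then visually rated against untreated controls.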

sunflower = assay: Test E sunflower; type: in vivo, Helianthus annuus; settings: Preemergence
field violet = assay: Test E field violet; type: in vivo, Viola arvensis; settings: Postemergence
Outline: as §1

Italian ryegrass = assay: Test E Italian ryegrass; type: in vivo, Lolium multiflorum; settings: Postemergence
Outline: as §1

galium = assay: Test E galium; type: in vivo, Galium aparine; settings: Postemergence
Procedure: […] A mixture of sandy loam soil and greenhouse potting mix in a 60:40 ratio was used for the postemergence test.
Plantings of these crops and weed species were adjusted to produce plants of appropriate size for the postemergence test. All plant species were grown using normal greenhouse practices. Crop and weed species include annual bluegrass (Poa annua), blackgrass (Alopecurus myosuroides), black nightshade (Solanum nigra), chickweed (Stellaria media), common poppy (Papaver rhoeas), deadnettle (Lamium amplexicaule), downy brome (Bromus tectorum), field violet (Viola arvensis), galium (Galium aparine), green foxtail (Setaria viridis), Italian ryegrass (Lolium multiflorum), jointed goatgrass (Aegilops cylindrica), kochia (Kochia scoparia), lambsquarters (Chenopodium album), littleseed canarygrass (Phalaris minor), rape (Brassica napus), redroot pigweed (Amaranthus retroflexus), Russian thistle (Salsola kali), scentless chamomile (Matricaria inodora), spring barley (Hordeum vulgare), sugar beet (Beta vulgaris), sunflower (Helianthus annuus), ivyleaf speedwell (Veronica hederaefolia), spring wheat (Triticum aestivum), winter wheat (Triticum aestivum), wild buckwheat (Polygonum convolvulus), wild mustard (Sinapis arvensis), wild oat (Avena fatua), windgrass (Apera spica-venti) and winter barley (Hordeum vulgare).
Treated plants and untreated controls were maintained in a greenhouse for approximately 21 to 28 days, after which all treated plants were compared to untreated controls and visually evaluated. […] A dash response (-) means no test result.

redroot pigweed = assay: Test E redroot pigweed; type: in vivo, Amaranthus retroflexus; settings: Postemergence
Outline: as §1

spring barley = assay: Test E spring barley; type: in vivo, Hordeum vulgare; settings: Postemergence
Outline: as §1

littleseed canarygrass = assay: Test E littleseed canarygrass; type: in vivo, Phalaris minor; settings: Preemergence
winter barley = assay: Test E winter barley; type: in vivo, Hordeum vulgare; settings: Postemergence
Outline: as §1

spring wheat [2] = assay: Test E spring wheat; type: in vivo, Triticum aestivum; settings: Postemergence
Outline: as §1

ivyleaf morningglory = assay: Test C postemergence ivyleaf morningglory; type: in vivo, Ipomoea hederacea; settings: 0 to 100 scale, 0 no effect, 100 complete control
Outline: (§2)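 In this greenhouse assay, treated and untreated plants were kept for approximately 14 to 21 days following postemergence application, then rated by eye on a scale from 0 (no effect) to 100 (complete control).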

arrowleaf sida = assay: Test C postemergence arrowleaf sida; type: in vivo, Sida rhombifolia; settings: 0 to 100 scale, 0 no effect, 100 complete control
Procedure: (§3) Compounds evaluated in this test were formulated in a non-phytotoxic solvent mixture which included a surfactant and applied to plants that were grown for various periods of time before treatment (postemergence application). A mixture of sandy loam soil and greenhouse potting mix in a 60:40 ratio was used for the postemergence test.
(§4) Plantings of these crops and weed species were adjusted to produce plants of appropriate size for the postemergence test. All plant species were grown using normal greenhouse practices. Crop and weed species include arrowleaf sida (Sida rhombifolia), barnyardgrass (Echinochloa crus-galli), cocklebur (Xanthium strumarium), common ragweed (Ambrosia elatior), corn (Zea mays), cotton (Gossypium hirsutum), eastern black nightshade (Solanum ptycanthum), fall panicum (Panicum dichotomiflorum), field bindweed (Convolvulus arvensis), giant foxtail (Setaria faberii), hairy beggarticks (Bidens pilosa), ivyleaf morningglory (Ipomoea hederacea), johnsongrass (Sorghum halepense), ladysthumb smartweed (Polygonum persicaria), lambsquarters (Chenopodium album), large crabgrass (Digitaria sanguinalis), purple nutsedge (Cyperus rotundus), redroot pigweed (Amaranthus retroflexus), soybean (Glycine max), surinam grass (Brachiaria decumbens), velvetleaf (Abutilon theophrasti) and wild poinsettia (Euphorbia heterophylla).
(§5) Treated plants and untreated controls were maintained in a greenhouse for approximately 14, to 21 days, after which all treated plants were compared to untreated controls and visually evaluated. Plant response ratings, summarized in Table C, were based upon a 0 to 100 scale where 0 was no effect and 100 was complete control. A dash response (−) means no test result.

purple nutsedge = assay: Test C postemergence purple nutsedge; type: in vivo, Cyperus rotundus; settings: 0 to 100 scale, 0 no effect, 100 complete control
Procedure: as §3, §4, §5

barnyardgrass = assay: Test C postemergence barnyardgrass; type: in vivo, Echinochloa crus-galli; settings: 0 to 100 scale, 0 no effect, 100 complete control
Procedure: as §3, §4, §5

soybean = assay: Test C postemergence soybean; type: in vivo, Glycine max; settings: 0 to 100 scale, 0 no effect, 100 complete control
Procedure: as §3, §4, §5

fall panicum = assay: Test C postemergence fall panicum; type: in vivo, Panicum dichotomiflorum; settings: 0 to 100 scale, 0 no effect, 100 complete control
Outline: as §2

[3] = Rate 125 g/ha, 0 to 100 scale (0 no effect, 100 complete control)
[4] = Rate 500 g/ha, 0 to 100 scale where 0 is no effect and 100 is complete control
[5] = Rate 250 g/ha, 0 to 100 scale (0 no effect, 100 complete control)
[6] = Rate 500 g/ha, 0 to 100 scale, 0 no effect, 100 complete control

CC(C)N(C(=O)n1oc(=O)n(C(C)C)c1=O)c1ccc(Cl)cc1 [Compound 114]
Plant response rating, Deadnettle (deadnettle; [3]): 20 | Plant response rating, Deadnettle (deadnettle; Rate 250 g/ha, 0 to 100 scale): 20 | Plant response rating, Deadnettle (deadnettle; [4]): 20 | Plant response rating, Spring Wheat (spring wheat [1]; [3]): 0 | Plant response rating, Spring Wheat (spring wheat [1]; Rate 250 g/ha, 0 to 100 scale): 10 | Plant response rating, Spring Wheat (spring wheat [1]; [4]): 20 | Plant response rating, Comnion poppy (common poppy; Rate 125 g/ha, 0 to 100 scale): 0 | Plant response rating, Common poppy (common poppy; [5]): 10 | Plant response rating, Common poppy (common poppy; [6]): 20 | Plant response rating, Sunflower (sunflower; [3]): 0 | Plant response rating, Sunflower (sunflower; Rate 250 g/ha, 0 to 100 scale): 0 | Plant response rating, Sunflower (sunflower; [4]): 5 | Plant response rating, Field violet (field violet; Rate 125 g/ha, 0 to 100 scale): 0 | Plant response rating, Field violet (field violet; [5]): 0 | Plant response rating, Field violet (field violet; [6]): 15 | Plant response rating, I. Ryegrass (Italian ryegrass; Rate 125 g/ha, 0 to 100 scale): 10 | Plant response rating, I. Ryegrass (Italian ryegrass; [5]): 20 | Plant response rating, I. Ryegrass (Italian ryegrass; [6]): 20 | Plant response rating, Galium (galium; Rate 125 g/ha, 0 to 100 scale): 10 | Plant response rating, Galium (galium; [5]): 50 | Plant response rating, Galium (galium; [6]): 85 | Plant response rating, Redroot pigweed (redroot pigweed; Rate 125 g/ha, 0 to 100 scale): 15 | Plant response rating, Redroot pigweed (redroot pigweed; [5]): 10 | Plant response rating, Redroot pigweed (redroot pigweed; [6]): 20 | Plant response rating, Spring Barley (spring barley; Rate 125 g/ha, 0 to 100 scale): 20 | Plant response rating, Spring Barley (spring barley; [5]): 30 | Plant response rating, Spring Barley (spring barley; [6]): 35 | Plant response rating, LS canarygrass (littleseed canarygrass; [3]): 50 | Plant response rating, LS canarygrass (littleseed canarygrass; Rate 250 g/ha, 0 to 100 scale): 60 | Plant response rating, LS canarygrass (littleseed canarygrass; [4]): 80 | Plant response rating, Barley (winter) (winter barley; Rate 125 g/ha, 0 to 100 scale): 5 | Plant response rating, Barley (winter) (winter barley; [5]): 10 | Plant response rating, Barley (winter) (winter barley; [6]): 20 | Plant response rating, Spring Wheat (spring wheat [2]; Rate 125 g/ha, 0 to 100 scale): 10 | Plant response rating, Spring Wheat (spring wheat [2]; [5]): 20 | Plant response rating, Spring Wheat (spring wheat [2]; [6]): 30

CCn1c(=O)on(C(=O)N(c2ccccc2)C(C)C)c1=O [Compound 117]
Plant response rating I. morningglory (ivyleaf morningglory; Rate 140 g/ha): 0 | Plant response rating I. morningglory (ivyleaf morningglory; Rate 280 g/ha): 0 | Plant response rating I. morningglory (ivyleaf morningglory; Rate 560 g/ha): 0 | Plant response rating I. morningglory (ivyleaf morningglory; Rate 1120 g/ha): 0 | Plant response rating Arrowleaf sida (arrowleaf sida; Rate 140 g/ha): 0 | Plant response rating Arrowleaf sida (arrowleaf sida; Rate 280 g/ha): 0 | Plant response rating Arrowleaf sida (arrowleaf sida; Rate 560 g/ha): 0 | Plant response rating Arrowleaf sida (arrowleaf sida; Rate 1120 g/ha): 50 | Plant response rating, Purple nutsedge (purple nutsedge; Rate 140 g/ha): 0 | Plant response rating, Purple nutsedge (purple nutsedge; Rate 280 g/ha): 0 | Plant response rating, Purple nutsedge (purple nutsedge; Rate 560 g/ha): 10 | Plant response rating, Purple nutsedge (purple nutsedge; Rate 1120 g/ha): 80 | Plant response rating, Barnyardgrass (barnyardgrass; Rate 140 g/ha): 70 | Plant response rating, Barnyardgrass (barnyardgrass; Rate 280 g/ha): 80 | Plant response rating, Barnyardgrass (barnyardgrass; Rate 560 g/ha): 90 | Plant response rating, Barnyardgrass (barnyardgrass; Rate 1120 g/ha): 90 | Plant response rating, Soybean (soybean; Rate 140 g/ha): 10 | Plant response rating, Soybean (soybean; Rate 280 g/ha): 35 | Plant response rating, Soybean (soybean; Rate 560 g/ha): 40 | Plant response rating, Soybean (soybean; Rate 1120 g/ha): 60 | Plant response rating Fall panicum (fall panicum; Rate 140 g/ha): 0 | Plant response rating Fall panicum (fall panicum; Rate 560 g/ha): 40 | Plant response rating Fall panicum (fall panicum; Rate 1120 g/ha): 80
